Experiments:
Settings in all cases: Compound concentration 10.0 uM
[1] = molecular target: Receptor-interacting serine/threonine-protein kinase 1 (Homo sapiens) (UniProt Q13546); test: Inhibition of RIPK1(h) at 10.0 µM in the Eurofins Kinase panel
[2] = molecular target: Dual specificity mitogen-activated protein kinase kinase 6 (Homo sapiens) (UniProt P52564); test: Inhibition of MKK6(h) at 10.0 µM in the Eurofins Kinase panel
[3] = molecular target: Histamine H3 receptor (Homo sapiens) (UniProt Q9Y5N1)
[4] = molecular target: Insulin-like growth factor 1 receptor (Homo sapiens) (UniProt P08069); test: Inhibition of IGF-1R(h), activated at 10.0 µM in the Eurofins Kinase panel
[5] = molecular target: Activin receptor type-1 (Homo sapiens) (UniProt Q04771); test: Inhibition of ALK2(h) at 10.0 µM in the Eurofins Kinase panel
[6] = molecular target: Serine/threonine-protein kinase MARK2 (Homo sapiens) (UniProt Q7KZI7); test: Inhibition of PAR-1Balpha(h) at 10.0 µM in the Eurofins Kinase panel
[7] = molecular target: Type-2 angiotensin II receptor (Homo sapiens) (UniProt P50052)
[8] = molecular target: Sodium-dependent dopamine transporter (Homo sapiens) (UniProt Q01959)
[9] = molecular target: Myosin light chain kinase 2, skeletal/cardiac muscle (Homo sapiens) (UniProt Q9H1R3); test: Inhibition of MYLK2(h) at 10.0 µM in the Eurofins Kinase panel
[10] = molecular target: Platelet-derived growth factor receptor beta (Homo sapiens) (UniProt P09619); test: Inhibition of PDGFRbeta(h) at 10.0 µM in the Eurofins Kinase panel
[11] = molecular target: Eukaryotic elongation factor 2 kinase (Homo sapiens) (UniProt O00418); test: Inhibition of eEF-2K(h) at 10.0 µM in the Eurofins Kinase panel
[12] = molecular target: Dual specificity mitogen-activated protein kinase kinase 2 (Homo sapiens) (UniProt P36507); test: Inhibition of MEK2(h) at 10.0 µM in the Eurofins Kinase panel
[13] = molecular target: Insulin receptor-related protein (Homo sapiens) (UniProt P14616); test: Inhibition of IRR(h) at 10.0 µM in the Eurofins Kinase panel
[14] = molecular target: SRSF protein kinase 1 (Homo sapiens) (UniProt Q96SB4); test: Inhibition of SRPK1(h) at 10.0 µM in the Eurofins Kinase panel
[15] = molecular target: Tyrosine-protein kinase JAK3 (Homo sapiens) (UniProt P52333); test: Inhibition of JAK3(h) at 10.0 µM in the Eurofins Kinase panel
[16] = molecular target: Serine/threonine-protein kinase haspin (Homo sapiens) (UniProt Q8TF76); test: Inhibition of Haspin(h) at 10.0 µM in the Eurofins Kinase panel
[17] = molecular target: Aurora kinase A (Homo sapiens) (UniProt O14965); test: Inhibition of Aurora-A(h) at 10.0 µM in the Eurofins Kinase panel
[18] = molecular target: T1, 5-hydroxytryptamine receptor 1A (Homo sapiens) (UniProt P08908)
T1 sequence (whole entry): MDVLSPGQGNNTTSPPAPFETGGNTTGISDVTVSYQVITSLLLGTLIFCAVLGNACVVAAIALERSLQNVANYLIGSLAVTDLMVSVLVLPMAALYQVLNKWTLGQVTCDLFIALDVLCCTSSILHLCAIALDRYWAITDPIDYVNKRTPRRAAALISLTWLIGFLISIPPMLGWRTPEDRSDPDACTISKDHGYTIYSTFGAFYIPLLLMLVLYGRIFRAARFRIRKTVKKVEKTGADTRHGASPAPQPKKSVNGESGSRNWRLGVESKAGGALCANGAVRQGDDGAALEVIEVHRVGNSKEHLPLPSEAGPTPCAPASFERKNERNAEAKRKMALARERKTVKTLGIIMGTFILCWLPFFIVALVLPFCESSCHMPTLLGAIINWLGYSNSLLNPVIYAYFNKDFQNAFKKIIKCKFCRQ

[19] = molecular target: T2, D(4) dopamine receptor (Homo sapiens) (UniProt P21917)
T2 sequence (whole entry): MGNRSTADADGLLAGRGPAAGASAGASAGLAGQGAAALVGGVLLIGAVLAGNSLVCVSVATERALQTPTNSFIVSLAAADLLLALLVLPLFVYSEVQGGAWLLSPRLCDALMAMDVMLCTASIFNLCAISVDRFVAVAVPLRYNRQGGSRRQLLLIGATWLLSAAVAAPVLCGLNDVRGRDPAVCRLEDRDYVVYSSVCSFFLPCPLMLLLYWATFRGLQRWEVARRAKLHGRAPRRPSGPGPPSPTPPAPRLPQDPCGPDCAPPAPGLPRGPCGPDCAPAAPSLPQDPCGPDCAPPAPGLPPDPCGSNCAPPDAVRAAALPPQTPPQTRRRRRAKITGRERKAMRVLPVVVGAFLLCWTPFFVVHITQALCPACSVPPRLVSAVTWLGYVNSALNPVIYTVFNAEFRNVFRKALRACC

[20] = molecular target: Tyrosine-protein kinase ABL2 (Homo sapiens) (UniProt P42684); test: Inhibition of Arg(h) at 10.0 µM in the Eurofins Kinase panel
[21] = molecular target: T3, Alpha-2B adrenergic receptor (Homo sapiens) (UniProt P18089)
T3 sequence (whole entry): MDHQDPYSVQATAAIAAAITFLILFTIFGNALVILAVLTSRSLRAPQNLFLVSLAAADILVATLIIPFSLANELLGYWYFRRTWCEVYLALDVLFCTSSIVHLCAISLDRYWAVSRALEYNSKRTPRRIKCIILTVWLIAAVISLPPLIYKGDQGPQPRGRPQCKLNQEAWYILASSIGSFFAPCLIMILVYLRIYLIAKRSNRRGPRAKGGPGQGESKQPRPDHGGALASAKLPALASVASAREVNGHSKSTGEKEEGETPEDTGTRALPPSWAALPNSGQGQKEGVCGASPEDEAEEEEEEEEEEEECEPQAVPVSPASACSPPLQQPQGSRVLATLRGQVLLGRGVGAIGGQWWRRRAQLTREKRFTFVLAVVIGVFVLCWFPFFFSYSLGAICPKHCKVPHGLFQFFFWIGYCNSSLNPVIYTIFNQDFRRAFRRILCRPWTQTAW

[22] = molecular target: Tyrosine-protein kinase Mer (Homo sapiens) (UniProt Q12866); test: Inhibition of Mer(h) at 10.0 µM in the Eurofins Kinase panel
[23] = molecular target: Interferon-induced, double-stranded RNA-activated protein kinase (Homo sapiens) (UniProt P19525); test: Inhibition of PKR(h) at 10.0 µM in the Eurofins Kinase panel
[24] = molecular target: 5-hydroxytryptamine receptor 1B (Homo sapiens) (UniProt P28222)
[25] = molecular target: Serine/threonine-protein kinase DCLK1 (Homo sapiens) (UniProt O15075); test: Inhibition of DCAMKL1(h) at 10.0 µM in the Eurofins Kinase panel
Sequence of Serine/threonine-protein kinase DCLK1 (Homo sapiens) (O15075 whole entry): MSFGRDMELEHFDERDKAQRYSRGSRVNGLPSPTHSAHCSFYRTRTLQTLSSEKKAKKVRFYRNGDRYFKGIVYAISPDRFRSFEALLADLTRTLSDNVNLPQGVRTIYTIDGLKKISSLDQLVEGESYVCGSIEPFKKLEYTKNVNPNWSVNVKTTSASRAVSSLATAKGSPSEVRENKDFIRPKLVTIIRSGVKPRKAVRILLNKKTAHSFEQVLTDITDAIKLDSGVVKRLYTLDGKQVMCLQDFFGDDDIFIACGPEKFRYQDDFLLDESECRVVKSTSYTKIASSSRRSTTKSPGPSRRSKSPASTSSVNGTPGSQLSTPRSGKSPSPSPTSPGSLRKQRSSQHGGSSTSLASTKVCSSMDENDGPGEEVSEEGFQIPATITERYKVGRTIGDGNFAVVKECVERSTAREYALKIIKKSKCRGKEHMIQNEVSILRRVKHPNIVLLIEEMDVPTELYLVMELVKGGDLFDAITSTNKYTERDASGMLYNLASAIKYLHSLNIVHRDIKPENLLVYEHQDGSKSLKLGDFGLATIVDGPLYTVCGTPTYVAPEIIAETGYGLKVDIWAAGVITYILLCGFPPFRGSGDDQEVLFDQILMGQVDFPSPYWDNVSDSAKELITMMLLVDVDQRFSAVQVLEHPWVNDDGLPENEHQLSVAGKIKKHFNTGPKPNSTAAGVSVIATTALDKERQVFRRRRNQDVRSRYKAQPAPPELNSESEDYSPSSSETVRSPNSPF

Sequence of 5-hydroxytryptamine receptor 1B (Homo sapiens) (P28222 whole entry): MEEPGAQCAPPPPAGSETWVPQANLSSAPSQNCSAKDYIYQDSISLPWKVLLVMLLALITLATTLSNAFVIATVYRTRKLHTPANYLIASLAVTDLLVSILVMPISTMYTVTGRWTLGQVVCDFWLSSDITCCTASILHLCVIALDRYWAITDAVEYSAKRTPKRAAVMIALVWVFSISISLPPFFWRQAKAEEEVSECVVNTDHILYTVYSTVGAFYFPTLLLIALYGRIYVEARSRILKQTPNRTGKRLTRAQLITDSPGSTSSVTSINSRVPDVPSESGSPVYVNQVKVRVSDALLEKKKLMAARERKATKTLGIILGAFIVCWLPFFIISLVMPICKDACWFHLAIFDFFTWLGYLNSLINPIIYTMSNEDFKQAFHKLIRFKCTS
Sequence of Histamine H3 receptor (Homo sapiens) (Q9Y5N1 whole entry): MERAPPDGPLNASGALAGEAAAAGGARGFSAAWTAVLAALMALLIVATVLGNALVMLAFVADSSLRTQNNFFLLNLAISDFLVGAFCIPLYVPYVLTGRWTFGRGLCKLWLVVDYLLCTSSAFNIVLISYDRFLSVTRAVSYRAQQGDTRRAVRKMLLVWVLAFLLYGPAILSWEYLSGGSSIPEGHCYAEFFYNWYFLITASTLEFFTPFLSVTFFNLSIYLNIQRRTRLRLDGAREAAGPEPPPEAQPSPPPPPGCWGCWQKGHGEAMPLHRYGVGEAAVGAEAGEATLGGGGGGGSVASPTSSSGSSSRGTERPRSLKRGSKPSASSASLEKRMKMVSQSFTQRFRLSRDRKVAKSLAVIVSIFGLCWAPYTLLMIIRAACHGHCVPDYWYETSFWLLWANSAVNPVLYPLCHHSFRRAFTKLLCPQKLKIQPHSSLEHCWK
Sequence of Activin receptor type-1 (Homo sapiens) (Q04771 whole entry): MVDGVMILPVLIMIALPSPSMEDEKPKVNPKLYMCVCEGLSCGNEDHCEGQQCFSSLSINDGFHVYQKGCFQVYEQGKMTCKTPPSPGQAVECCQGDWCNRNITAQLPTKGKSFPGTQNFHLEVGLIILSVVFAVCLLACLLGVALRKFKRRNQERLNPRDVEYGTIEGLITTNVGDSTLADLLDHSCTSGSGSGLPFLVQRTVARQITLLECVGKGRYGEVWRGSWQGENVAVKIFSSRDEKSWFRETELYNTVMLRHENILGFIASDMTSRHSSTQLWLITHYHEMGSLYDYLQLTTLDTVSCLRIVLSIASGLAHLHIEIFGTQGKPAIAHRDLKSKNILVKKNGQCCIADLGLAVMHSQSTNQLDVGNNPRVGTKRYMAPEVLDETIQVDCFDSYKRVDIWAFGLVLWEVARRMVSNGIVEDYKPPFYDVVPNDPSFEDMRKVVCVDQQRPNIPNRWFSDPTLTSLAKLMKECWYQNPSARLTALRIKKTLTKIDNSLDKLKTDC
Sequence of Dual specificity mitogen-activated protein kinase kinase 6 (Homo sapiens) (P52564 whole entry): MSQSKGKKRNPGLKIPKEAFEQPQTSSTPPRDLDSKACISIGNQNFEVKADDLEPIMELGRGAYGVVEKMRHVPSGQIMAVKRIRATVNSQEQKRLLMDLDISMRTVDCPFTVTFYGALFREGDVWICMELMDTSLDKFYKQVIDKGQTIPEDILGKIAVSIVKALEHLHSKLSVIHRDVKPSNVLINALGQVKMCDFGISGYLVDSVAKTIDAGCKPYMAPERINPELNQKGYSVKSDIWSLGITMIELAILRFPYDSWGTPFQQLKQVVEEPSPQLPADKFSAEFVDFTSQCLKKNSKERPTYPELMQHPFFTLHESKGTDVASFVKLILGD
Sequence of Serine/threonine-protein kinase haspin (Homo sapiens) (Q8TF76 whole entry): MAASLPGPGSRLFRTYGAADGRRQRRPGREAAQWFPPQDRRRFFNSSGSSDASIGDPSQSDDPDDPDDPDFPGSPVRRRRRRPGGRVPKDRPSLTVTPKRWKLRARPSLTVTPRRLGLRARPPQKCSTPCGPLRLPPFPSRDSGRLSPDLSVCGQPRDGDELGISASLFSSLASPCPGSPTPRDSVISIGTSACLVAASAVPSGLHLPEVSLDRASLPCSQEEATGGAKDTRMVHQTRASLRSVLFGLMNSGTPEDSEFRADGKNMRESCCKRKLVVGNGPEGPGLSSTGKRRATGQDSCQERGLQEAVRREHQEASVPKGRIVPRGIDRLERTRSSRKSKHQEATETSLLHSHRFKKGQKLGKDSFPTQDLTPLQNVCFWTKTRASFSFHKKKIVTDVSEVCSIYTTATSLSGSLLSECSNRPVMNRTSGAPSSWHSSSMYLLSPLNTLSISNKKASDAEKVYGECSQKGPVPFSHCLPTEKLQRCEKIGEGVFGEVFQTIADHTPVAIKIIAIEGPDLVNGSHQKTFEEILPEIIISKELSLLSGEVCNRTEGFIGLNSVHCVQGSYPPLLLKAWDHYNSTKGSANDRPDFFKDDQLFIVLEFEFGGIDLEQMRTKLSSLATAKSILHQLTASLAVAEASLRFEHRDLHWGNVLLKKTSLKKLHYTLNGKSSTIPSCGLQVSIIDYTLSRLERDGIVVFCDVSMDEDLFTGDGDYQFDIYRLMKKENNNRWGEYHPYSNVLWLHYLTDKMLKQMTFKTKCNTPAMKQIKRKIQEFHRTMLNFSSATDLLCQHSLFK
Sequence of Myosin light chain kinase 2, skeletal/cardiac muscle (Homo sapiens) (Q9H1R3 whole entry): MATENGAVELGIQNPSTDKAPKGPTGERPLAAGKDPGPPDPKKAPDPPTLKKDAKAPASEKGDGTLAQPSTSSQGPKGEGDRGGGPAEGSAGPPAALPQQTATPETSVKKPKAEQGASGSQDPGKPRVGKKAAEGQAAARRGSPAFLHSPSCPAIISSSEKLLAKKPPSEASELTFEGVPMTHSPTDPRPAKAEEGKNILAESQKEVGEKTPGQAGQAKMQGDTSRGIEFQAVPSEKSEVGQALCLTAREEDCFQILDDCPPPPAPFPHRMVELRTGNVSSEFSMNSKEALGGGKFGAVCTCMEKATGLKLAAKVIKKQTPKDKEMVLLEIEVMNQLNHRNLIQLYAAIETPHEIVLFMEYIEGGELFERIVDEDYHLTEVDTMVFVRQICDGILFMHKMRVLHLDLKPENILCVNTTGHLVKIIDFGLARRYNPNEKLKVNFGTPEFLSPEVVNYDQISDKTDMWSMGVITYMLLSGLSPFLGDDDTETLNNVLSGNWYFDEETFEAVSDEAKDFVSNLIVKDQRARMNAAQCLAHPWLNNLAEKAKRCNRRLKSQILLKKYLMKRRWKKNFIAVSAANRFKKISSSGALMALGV
Sequence of Serine/threonine-protein kinase MARK2 (Homo sapiens) (Q7KZI7 whole entry): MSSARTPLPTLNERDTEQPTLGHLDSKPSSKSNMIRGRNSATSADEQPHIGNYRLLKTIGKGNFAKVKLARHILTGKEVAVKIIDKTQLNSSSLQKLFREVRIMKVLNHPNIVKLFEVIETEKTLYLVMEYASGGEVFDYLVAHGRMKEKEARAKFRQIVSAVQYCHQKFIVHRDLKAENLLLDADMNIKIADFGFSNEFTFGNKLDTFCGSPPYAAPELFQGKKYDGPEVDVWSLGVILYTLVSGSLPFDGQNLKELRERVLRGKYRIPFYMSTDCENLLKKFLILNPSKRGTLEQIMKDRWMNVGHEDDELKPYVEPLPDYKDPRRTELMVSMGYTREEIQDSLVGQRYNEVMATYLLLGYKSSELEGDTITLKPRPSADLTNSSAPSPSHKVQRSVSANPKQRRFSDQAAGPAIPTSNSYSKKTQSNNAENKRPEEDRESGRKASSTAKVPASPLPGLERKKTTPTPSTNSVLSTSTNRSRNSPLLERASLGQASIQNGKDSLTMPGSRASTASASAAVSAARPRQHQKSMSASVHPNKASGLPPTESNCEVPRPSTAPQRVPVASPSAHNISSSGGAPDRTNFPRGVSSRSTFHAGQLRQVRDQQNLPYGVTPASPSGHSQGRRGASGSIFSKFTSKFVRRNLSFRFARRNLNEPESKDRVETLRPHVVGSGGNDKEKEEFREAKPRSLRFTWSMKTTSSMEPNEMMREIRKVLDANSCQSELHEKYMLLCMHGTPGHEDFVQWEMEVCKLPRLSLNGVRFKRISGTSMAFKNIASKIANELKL
Sequence of Aurora kinase A (Homo sapiens) (O14965 whole entry): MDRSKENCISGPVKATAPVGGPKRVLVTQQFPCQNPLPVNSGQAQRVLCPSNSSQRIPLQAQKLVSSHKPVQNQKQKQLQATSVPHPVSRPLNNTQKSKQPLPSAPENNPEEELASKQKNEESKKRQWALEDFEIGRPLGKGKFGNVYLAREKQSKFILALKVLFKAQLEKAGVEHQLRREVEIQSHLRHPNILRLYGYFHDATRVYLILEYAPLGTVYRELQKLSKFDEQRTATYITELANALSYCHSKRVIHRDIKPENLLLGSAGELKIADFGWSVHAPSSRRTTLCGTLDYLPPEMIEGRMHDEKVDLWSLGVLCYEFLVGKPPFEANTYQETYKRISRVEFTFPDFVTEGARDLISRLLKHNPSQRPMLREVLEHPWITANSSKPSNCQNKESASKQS

| Structure (SMILES) | inhibition [1] [%] | inhibition [2] [%] | inhibition [3] [%] | inhibition [4] [%] | inhibition [5] [%] | inhibition [6] [%] | inhibition [7] [%] | inhibition [8] [%] | inhibition [9] [%] | inhibition [10] [%] | inhibition [11] [%] | inhibition [12] [%] | inhibition [13] [%] | inhibition [14] [%] | inhibition [15] [%] | inhibition [16] [%] | inhibition [17] [%] | inhibition [18] [%] | inhibition [19] [%] | inhibition [20] [%] | also measured |
| --- | --- | --- | --- | --- | --- | --- | --- | --- | --- | --- | --- | --- | --- | --- | --- | --- | --- | --- | --- | --- | --- |
| O=c1n(Cc2cncn2-c2cccc(Cl)c2)nc(-c2ccc(Cl)cc2)n1C[C@H](O)C(F)(F)F | 2.04 | 5.77 | 5.05 | -4.33 | -2.29 | 5.49 | -3 | 19 | 3.49 | -9.1 | -4.87 | 6.76 | -9.92 | -4.61 | 2.81 | -2.75 | 12.7 | 33.3 | -4.7 | 2.02 | inhibition [21]: 2%; inhibition [22]: -6.11%; inhibition [23]: -3.03%; inhibition [24]: 7.15%; inhibition [25]: -2.6% |
| C[C@H](O)c1nc(Cn2nc(-c3ccc(Cl)cc3)n(C[C@H](O)C(F)(F)F)c2=O)nn1-c1cccc(Cl)c1 [PECAVAPTAN] | 0.69 | 7.34 | 11.9 | -6.92 | -2.51 | 7.5 | 4 | 4 | 3.01 | -5.19 | -9.42 | 0.27 | 0.47 | -6.76 | -1.87 | 2.09 | 11.2 | 46.8 | 19.5 | -0.68 | inhibition [21]: 8%; inhibition [22]: -0.91%; inhibition [23]: 1.32%; inhibition [24]: 4.87%; inhibition [25]: -1.32% |
